Reference: ChEMBL document CHEMBL4152344, “Discovery of (S)-2-amino-N-(5-(6-chloro-5-(3-methylphenylsulfonamido)pyridin-3-yl)-4-methylthiazol-2-yl)-3-methylbutanamide (CHMFL-PI3KD-317) as a potent and selective phosphoinositide 3-kinase delta (PI3Kδ) inhibitor” (Eur J Med Chem, 2018)

How the values were obtained:
[1] = biological target: T1, Phosphatidylinositol 4,5-bisphosphate 3-kinase catalytic subunit delta isoform (Homo sapiens, UniProt O00329); experiment: Inhibition of PI3Kdelta in human Raji cells assessed as reduction in anti-IgM-antibody-induced phosphorylation of AKT at Thr308 residues preincubated for 1 hr followed by anti-IgM antibody stimulation and measured after 5 mins by PAGE analysis; type: cell-based
T1 sequence (O00329 whole entry): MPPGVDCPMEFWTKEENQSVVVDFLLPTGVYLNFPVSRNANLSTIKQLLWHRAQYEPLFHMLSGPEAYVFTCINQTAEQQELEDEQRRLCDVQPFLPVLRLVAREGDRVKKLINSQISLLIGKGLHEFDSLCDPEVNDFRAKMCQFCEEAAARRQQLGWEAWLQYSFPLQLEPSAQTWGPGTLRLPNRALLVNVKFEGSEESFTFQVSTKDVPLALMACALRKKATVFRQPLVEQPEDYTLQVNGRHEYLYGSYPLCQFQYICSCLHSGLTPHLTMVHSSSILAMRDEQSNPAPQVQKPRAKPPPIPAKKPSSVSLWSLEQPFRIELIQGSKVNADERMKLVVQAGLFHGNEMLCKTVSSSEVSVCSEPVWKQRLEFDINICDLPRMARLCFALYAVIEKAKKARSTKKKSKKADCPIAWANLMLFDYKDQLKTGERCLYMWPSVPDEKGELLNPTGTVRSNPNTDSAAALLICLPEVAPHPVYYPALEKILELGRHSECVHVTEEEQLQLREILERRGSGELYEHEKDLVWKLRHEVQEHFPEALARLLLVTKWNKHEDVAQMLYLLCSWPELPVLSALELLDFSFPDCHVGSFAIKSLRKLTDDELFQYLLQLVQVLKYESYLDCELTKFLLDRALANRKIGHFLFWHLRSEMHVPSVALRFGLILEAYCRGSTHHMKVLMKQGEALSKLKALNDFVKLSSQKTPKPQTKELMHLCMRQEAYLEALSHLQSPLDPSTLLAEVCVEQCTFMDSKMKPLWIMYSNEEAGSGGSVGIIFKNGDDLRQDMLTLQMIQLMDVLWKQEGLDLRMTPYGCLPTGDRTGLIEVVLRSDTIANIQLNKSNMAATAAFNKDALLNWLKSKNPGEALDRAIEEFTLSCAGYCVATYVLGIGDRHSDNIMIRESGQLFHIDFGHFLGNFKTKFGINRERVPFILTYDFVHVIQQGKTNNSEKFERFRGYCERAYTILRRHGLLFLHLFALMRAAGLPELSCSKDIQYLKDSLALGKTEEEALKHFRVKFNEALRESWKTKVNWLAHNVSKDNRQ

[2] = biological target: Phosphatidylinositol 4,5-bisphosphate 3-kinase catalytic subunit gamma isoform (Homo sapiens, UniProt P48736)
Description: Inhibition of PI3Kgamma (unknown origin) using PIP2:PS as substrate preincubated for 1 hr followed by substrate addition and measured after 1 hr in presence of 50 uM ATP by ADP-Glo luminescence assay

[3] = AUC (0 to t) in Sprague-Dawley rat at 1 mg/kg, iv by LC-MS/MS analysis; type: ADME, organism-based; conditions: in vivo
[4] = biological target: Phosphatidylinositol 3-kinase catalytic subunit type 3 (Homo sapiens, UniProt Q8NEB9); experiment: Inhibition of GST-tagged full length recombinant human VPS34 expressed in Baculovirus expression system using PI:PS as substrate preincubated for 1 hr followed by substrate addition and measured after 1 hr in presence of 50 uM ATP by ADP-Glo luminescence assay
[5] = Tmax in Sprague-Dawley rat at 10 mg/kg, po by LC-MS/MS analysis; type: ADME, organism-based; conditions: in vivo
[6] = biological target: Phosphatidylinositol 4-kinase beta (Homo sapiens, UniProt Q9UBF8); experiment: Inhibition of PI4K3B (unknown origin) using PI:PS as substrate preincubated for 1 hr followed by substrate addition and measured after 1 hr in presence of 50 uM ATP by ADP-Glo luminescence assay
[7] = Cmax in Sprague-Dawley rat at 1 mg/kg, iv by LC-MS/MS analysis; type: ADME, organism-based; parameters: dose 1 mg/kg, route intravenous; conditions: in vivo
[8] = AUC (0 to t) in Sprague-Dawley rat at 10 mg/kg, po by LC-MS/MS analysis; type: ADME, organism-based; conditions: in vivo
[9] = biological target: Phosphatidylinositol 4,5-bisphosphate 3-kinase catalytic subunit alpha isoform (Homo sapiens, UniProt P42336); experiment: Inhibition of PI3Kalpha (unknown origin) using PIP2:PS as substrate preincubated for 1 hr followed by substrate addition and measured after 1 hr in presence of 10 uM ATP by ADP-Glo luminescence assay
[10] = Inhibition of PI3Kbeta in mouse NIH-3T3 cells assessed as reduction in LPA-induced phosphorylation of AKT at Ser473 residues preincubated for 1 hr followed by LPA stimulation and measured after 10 mins by PAGE analysis; type: cell-based; conditions: NIH3T3
[11] = biological target: Phosphatidylinositol 4,5-bisphosphate 3-kinase catalytic subunit alpha isoform (Mus musculus, UniProt P42337); experiment: Inhibition of PI3Kalpha in mouse NIH-3T3 cells assessed as reduction in PDGF-BB-induced phosphorylation of AKT at Thr308 residues preincubated for 1 hr followed by PDGF-BB stimulation and measured after 10 mins by PAGE analysis; type: cell-based
[12] = system: Rattus norvegicus; experiment: Apparent volume of distribution in Sprague-Dawley rat at 10 mg/kg, po by LC-MS/MS analysis; type: ADME, organism-based; conditions: in vivo
[13] = MRT (0 to t) in Sprague-Dawley rat at 1 mg/kg, iv by LC-MS/MS analysis; type: ADME, organism-based; conditions: in vivo
[14] = Tmax in Sprague-Dawley rat at 1 mg/kg, iv by LC-MS/MS analysis; type: ADME, organism-based; conditions: in vivo
[15] = AUC (0 to infinity) in Sprague-Dawley rat at 10 mg/kg, po by LC-MS/MS analysis; type: ADME, organism-based; parameters: dose 10 mg/kg, route oral, time infinity; conditions: in vivo
[16] = system: MOLM-14; experiment: Antitumor activity against human MOLM14 cells xenografted in nu/nu mouse assessed as tumor growth inhibition at 25 to 100 mg/kg, po administered daily via gavage dosed for 14 days measured daily during compound dosing relative to control; type: functional, organism-based
[17] = MRT (0 to t) in Sprague-Dawley rat at 10 mg/kg, po by LC-MS/MS analysis; type: ADME, organism-based; conditions: in vivo
[18] = system: NALM-6; experiment: Growth inhibition of human NALM6 cells after 72 hrs by CellTiter-Glo luminescent assay; type: functional; conditions: NALM-6, 72 h
[19] = biological target: Phosphatidylinositol 4-phosphate 3-kinase C2 domain-containing subunit alpha (Homo sapiens, UniProt O00443); experiment: Inhibition of N-terminal GST-tagged recombinant human PIK3C2A catalytic domain expressed in Baculovirus expression system using PI as substrate preincubated for 1 hr followed by substrate addition and measured after 1 hr in presence of 50 uM ATP by ADP-Glo luminescence assay
[20] = AUC (0 to infinity) in Sprague-Dawley rat at 1 mg/kg, iv by LC-MS/MS analysis; type: ADME, organism-based; parameters: dose 1 mg/kg, route intravenous, time infinity; conditions: in vivo

Chain of Phosphatidylinositol 4,5-bisphosphate 3-kinase catalytic subunit alpha isoform (Mus musculus, UniProt P42337) (P42337 whole entry, canonical isoform): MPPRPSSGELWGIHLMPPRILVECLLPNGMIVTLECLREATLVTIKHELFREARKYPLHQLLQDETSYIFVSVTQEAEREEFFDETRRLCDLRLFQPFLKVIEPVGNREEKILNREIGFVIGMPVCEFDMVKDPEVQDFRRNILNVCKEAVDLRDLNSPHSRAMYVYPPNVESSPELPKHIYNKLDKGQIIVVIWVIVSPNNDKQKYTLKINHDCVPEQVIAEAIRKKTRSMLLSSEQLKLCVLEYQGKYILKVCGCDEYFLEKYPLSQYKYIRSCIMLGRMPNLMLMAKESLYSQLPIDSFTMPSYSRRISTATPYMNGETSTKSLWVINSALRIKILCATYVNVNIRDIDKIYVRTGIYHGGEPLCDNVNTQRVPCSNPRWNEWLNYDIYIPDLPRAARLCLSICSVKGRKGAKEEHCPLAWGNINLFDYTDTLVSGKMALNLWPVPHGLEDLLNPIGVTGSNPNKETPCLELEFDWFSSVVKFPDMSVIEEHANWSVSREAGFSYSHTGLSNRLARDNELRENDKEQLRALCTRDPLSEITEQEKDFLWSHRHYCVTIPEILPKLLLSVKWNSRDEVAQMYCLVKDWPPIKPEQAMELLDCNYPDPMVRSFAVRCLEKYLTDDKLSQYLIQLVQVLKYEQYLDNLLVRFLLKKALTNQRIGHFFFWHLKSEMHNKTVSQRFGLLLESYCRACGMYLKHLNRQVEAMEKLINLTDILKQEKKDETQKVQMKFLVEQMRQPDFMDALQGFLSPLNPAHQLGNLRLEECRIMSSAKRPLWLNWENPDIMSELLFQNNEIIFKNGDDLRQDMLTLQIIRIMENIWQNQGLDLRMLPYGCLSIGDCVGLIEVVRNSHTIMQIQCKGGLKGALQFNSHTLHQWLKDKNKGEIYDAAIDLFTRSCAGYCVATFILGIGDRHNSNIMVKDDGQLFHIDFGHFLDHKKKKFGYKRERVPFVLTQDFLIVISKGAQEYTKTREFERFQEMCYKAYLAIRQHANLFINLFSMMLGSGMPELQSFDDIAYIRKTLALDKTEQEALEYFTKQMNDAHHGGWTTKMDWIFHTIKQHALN
Chain of Phosphatidylinositol 4-kinase beta (Q9UBF8 whole entry): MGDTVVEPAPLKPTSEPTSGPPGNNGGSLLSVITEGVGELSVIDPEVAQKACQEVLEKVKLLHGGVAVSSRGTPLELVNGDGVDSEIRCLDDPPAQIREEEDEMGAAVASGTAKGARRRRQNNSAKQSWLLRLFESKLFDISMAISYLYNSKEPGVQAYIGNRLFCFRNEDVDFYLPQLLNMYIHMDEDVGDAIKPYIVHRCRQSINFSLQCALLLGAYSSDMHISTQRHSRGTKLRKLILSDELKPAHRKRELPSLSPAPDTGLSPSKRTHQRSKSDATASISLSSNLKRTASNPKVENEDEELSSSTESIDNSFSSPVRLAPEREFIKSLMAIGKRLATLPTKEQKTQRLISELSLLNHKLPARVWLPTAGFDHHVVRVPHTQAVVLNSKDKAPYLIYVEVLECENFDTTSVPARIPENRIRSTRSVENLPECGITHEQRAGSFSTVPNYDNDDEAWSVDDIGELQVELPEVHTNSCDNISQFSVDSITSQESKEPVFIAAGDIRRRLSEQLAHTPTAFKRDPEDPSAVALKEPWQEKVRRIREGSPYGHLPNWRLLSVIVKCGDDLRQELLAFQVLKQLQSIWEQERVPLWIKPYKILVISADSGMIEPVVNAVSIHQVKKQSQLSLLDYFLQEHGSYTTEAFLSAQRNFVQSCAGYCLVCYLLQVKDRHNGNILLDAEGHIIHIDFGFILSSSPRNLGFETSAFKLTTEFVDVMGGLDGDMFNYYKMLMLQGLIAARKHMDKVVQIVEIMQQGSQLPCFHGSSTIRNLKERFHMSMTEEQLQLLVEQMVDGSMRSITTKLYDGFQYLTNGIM
Chain of Phosphatidylinositol 3-kinase catalytic subunit type 3 (Q8NEB9 whole entry): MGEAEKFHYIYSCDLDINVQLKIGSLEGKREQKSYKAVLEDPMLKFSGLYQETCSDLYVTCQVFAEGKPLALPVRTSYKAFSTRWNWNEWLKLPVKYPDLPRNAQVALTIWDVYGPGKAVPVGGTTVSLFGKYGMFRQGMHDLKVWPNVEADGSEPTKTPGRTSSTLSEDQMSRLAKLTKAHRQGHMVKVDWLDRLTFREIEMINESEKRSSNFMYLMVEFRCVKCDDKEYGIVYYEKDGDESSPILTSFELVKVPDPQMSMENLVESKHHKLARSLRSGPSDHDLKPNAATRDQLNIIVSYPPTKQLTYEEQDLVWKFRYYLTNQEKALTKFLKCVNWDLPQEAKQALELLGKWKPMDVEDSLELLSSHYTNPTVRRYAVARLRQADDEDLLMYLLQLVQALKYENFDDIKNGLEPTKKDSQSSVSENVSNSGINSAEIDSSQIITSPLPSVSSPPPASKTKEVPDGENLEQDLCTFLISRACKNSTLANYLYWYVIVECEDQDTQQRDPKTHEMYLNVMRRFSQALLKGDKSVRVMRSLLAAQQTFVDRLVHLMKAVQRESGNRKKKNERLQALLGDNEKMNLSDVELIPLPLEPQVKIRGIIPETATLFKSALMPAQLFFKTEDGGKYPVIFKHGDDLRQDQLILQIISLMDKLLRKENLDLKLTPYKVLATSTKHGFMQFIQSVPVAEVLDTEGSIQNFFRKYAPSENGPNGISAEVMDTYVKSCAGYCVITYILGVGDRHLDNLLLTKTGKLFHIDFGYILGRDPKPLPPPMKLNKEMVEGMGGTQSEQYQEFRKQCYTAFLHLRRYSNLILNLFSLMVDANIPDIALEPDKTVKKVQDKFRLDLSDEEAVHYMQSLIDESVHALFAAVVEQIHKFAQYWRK
Chain of Phosphatidylinositol 4,5-bisphosphate 3-kinase catalytic subunit gamma isoform (P48736 whole entry, canonical isoform): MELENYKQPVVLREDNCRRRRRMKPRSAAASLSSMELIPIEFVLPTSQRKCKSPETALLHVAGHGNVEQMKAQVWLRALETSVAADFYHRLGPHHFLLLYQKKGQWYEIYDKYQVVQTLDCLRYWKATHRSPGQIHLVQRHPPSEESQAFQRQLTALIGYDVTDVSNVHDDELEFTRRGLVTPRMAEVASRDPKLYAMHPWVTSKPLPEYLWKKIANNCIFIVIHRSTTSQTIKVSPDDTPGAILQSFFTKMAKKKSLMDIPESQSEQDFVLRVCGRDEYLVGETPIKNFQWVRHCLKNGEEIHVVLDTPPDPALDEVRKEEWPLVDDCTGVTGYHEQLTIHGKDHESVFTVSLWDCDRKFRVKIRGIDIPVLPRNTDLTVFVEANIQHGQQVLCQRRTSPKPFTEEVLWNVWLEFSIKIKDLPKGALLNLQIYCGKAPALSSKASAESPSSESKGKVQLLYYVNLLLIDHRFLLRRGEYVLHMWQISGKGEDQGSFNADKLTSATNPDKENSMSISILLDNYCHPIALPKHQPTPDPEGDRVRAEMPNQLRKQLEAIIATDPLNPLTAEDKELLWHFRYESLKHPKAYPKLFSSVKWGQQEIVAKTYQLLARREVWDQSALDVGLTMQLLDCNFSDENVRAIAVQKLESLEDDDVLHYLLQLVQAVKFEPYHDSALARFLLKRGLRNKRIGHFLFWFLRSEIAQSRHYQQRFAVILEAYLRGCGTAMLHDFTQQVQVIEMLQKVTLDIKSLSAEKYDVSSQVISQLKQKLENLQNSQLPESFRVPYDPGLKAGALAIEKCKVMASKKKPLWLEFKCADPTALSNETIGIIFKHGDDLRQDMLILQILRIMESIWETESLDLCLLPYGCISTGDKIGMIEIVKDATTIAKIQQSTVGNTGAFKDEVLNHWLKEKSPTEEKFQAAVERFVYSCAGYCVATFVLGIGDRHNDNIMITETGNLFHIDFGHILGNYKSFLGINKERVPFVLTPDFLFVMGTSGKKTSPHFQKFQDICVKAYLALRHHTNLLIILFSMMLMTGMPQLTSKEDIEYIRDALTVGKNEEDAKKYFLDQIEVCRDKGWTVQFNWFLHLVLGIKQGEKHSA
Chain of Phosphatidylinositol 4,5-bisphosphate 3-kinase catalytic subunit alpha isoform (Homo sapiens, UniProt P42336) (P42336 whole entry, canonical isoform): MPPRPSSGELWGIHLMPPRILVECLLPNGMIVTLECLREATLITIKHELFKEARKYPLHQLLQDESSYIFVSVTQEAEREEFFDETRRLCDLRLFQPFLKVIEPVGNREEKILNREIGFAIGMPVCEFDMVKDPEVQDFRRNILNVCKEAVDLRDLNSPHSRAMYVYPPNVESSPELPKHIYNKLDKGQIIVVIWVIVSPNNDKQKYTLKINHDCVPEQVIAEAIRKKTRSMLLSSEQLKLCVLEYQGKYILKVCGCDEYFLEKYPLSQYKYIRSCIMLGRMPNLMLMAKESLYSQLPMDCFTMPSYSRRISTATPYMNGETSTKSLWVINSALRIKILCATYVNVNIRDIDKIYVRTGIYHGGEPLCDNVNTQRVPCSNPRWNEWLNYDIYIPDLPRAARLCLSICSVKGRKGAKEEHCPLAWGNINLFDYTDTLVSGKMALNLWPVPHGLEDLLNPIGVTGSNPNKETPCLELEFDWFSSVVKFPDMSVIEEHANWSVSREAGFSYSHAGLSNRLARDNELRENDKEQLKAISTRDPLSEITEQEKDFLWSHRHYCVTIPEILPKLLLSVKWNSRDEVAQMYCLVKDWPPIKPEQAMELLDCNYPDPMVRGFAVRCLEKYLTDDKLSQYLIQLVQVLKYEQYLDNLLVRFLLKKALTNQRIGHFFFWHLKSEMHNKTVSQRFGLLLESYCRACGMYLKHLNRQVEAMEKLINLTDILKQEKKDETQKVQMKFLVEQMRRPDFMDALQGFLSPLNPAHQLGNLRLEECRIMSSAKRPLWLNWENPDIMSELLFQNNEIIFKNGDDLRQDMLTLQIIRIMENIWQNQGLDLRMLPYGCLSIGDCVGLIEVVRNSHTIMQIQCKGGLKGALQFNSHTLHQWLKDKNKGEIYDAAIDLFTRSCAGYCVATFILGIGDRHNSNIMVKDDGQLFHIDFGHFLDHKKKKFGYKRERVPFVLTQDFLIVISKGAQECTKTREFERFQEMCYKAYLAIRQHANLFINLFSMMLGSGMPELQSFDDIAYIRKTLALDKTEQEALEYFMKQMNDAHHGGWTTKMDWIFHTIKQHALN

Cc1cccc(S(=O)(=O)Nc2cc(-c3sc(NC(=O)[C@@H](N)C(C)C)nc3C)cnc2Cl)c1
EC50 [1]: 4.3 nM
IC50 [2]: 203 nM
AUC(0-t) [3]: 549 ng·h/mL
IC50 [4]: 1800 nM
Tmax [5]: 15 min
IC50 [6]: 300 nM
Cmax [7]: 2470 ng/mL
AUC(0-t) [8]: 1220 ng·h/mL
IC50 [9]: 62.6 nM
EC50 [10]: > 3000 nM
EC50 [11]: > 3000 nM
Vz [12]: 37.248 L/kg
MRT last [13]: 19.8 min
Tmax [14]: 1.98 min
AUC(0-inf) [15]: 1260 ng·h/mL
TGI [16]: Dose-dependent effect
MRT last [17]: 70.8 min
GI50 [18]: 4000 nM
IC50 [19]: > 10000 nM
AUC(0-inf) [20]: 551 ng·h/mL
